Results: patent US20170216297A1, “EFFICIENT INHIBITION OF HSP27” (TECHNISCHE UNIVERSITAET DRESDEN, priority 2014, published 2017)
Read-outs that look alike come from different tables or passages of the source.

Key:
HSP27 [1] = target: T1, HSP27 (Homo sapiens, UniProt P04792); experiment: Bio-layer interferometry (ForteBio Octet Red 384, biotinylated HSP27 on SSA sensors); format: binding
Source text: Bio-layer interferometry is a technique for detecting biomolecular interactions. It is an analytical technique that measures the optical interference of white light which is reflected by two surfaces: in each case, one surface consists of a layer of the immobilized target protein on the tip of the biosensor and one is an internal reference surface. The binding of ligands to the target protein alters the interference pattern and can be measured in real time.
For the measurements, an instrument of the ForteBio Octet Red 384 brand was used. The target protein HSP27 was biotinylated and bound to the appropriate sensors (SSA). […] The purine derivatives of general formula (I) or (II) pre-identified by means of in silico screening are employed for these measurements in a concentration range (KD) of between 333 μmol/L and 10 nmol/L.
For measurements by bio-layer interferometry, biotinylated HSP27 protein was first bound to Super-Streptavidin sensors (SSA, Fortebio). The loaded sensors were then incubated (“quenched”) with biocytin. As reference, unloaded SSA sensors were incubated with biocytin. In the case of a specific binding to HSP27 of the analyte to be measured, the loaded HSP27 sensor generates a stronger signal (response) than the concurrent reference sensor. After the “baseline” has been established by incubation with the reaction buffer (PBST 0.1% Tween 20 plus 3% DMSO), first the association and then the dissociation of the respective analyte is measured in real time. The analytes were measured in increasing concentrations in each case: 1.23-3.7-11.11-33.33-100-300 μM/l.

RPMI-8226 cells = experiment: Development of resistance to bortezomib in RPMI-8226 cells; format: cell-based
Protocol: The cell line RPMI-8226 (DMSZ 402) is a “multiple myeloma” cell line and was chosen because bortezomib is employed as a standard therapy for multiple myeloma. RPMI-8226 cells respond to bortezomib, express HSP27 and develop resistance to Velcade. RPMI-8226 cells were seeded at a cell count of 100,000 cells/ml in each case and regularly passaged. […] In contrast, for RPMI 8226 cells that were treated with 30 μmol/L BVDU, a final cell count of 160,000 cells/ml was detected whereas the final cell count for the culture without the addition of an HSP27 inhibitor amounted to 350,000 cells/ml. As a control, RPMI 8226 cells were treated with the respective test substances alone, FIG. 4b.

HSP27 [2] = target: T1, HSP27; experiment: Capillary electrophoresis of the CS protein precipitates (precipitated citrate synthase as measure of HSP27 inhibition); format: biochemical; settings: for Rel. quantity of protein prec. CS / times higher activity than BVDU for the inhibition of the HSP27 protein: 10 μmol/L; for Rel. quantity of protein prec. CS: 750 μmol/L BVDU set at 1; for times higher activity than BVDU for the inhibition of the HSP27 protein: 120 minutes
Protocol: (§1) Since the heat-denatured protein aggregates of the citrate synthase from Example 1 are not water-soluble, these can be separated completely from the supernatant by means of centrifugation at room temperature at 16,000×g, 10 min. By using capillary electrophoresis, the compositions of the separated precipitates can be shown and quantified. The relative quantity of protein of precipitated citrate synthase serves as a measure of the efficacy of the test substances.
(§2) In each case, 481 nmol/L HSP27 and 1.44 μmol/L citrate synthase in 40 mmol/L HEPES buffer, pH 7.4, were employed. The relative quantity of protein of the precipitated citrate synthase in each case was normalized using a defined quantity of BSA as internal standard. The relative quantity of protein that precipitated when using 750 μmol/L BVDU was set at 1. The other test substances (2 representatives of phenothiazine derivatives of general formula (V), 2 representatives of purine derivatives of formula (I) or (II)) were each employed at a concentration of 10 μmol/L.
as §1, with “Example 2” for “Example 1”
as §2, with “nM” for “nmol/L”, “thymine” for “purine”, “were” for “were each”, “μmol/L in each case.” for “μmol/L.”
Otherwise, the experiments were performed as described above: […]

U937 cells = experiment: Development of resistance to bortezomib in U937 cells; format: cell-based; settings: Examples 17/18: bortezomib 0.1-0.5 ng/ml, plus 0.75 μmol/L inhibitor
Protocol: For this purpose, U937 cells (histiocytic lymphoma) were cultured in DMEM culture medium (+10% FCS) at 37° C., 5% CO2 in an H2O-saturated atmosphere. 100,000 cells/ml were seeded and incubated with the cytostatic agent bortezomib (0.1 ng/ml) and the respective test substance (dosage in the current experiment: 1 μM/L acepromazine). The reference substance, BVDU, was employed at a concentration of 30 μM/L. The cells were in each case passaged before the cell count reached 1,000,000 cells/ml. At each passage, 100,000 cells/ml were again seeded and the dose of the cytostatic agent bortezomib was increased stepwise (0.1 ng/mL or 0.05 ng/mL). The concentration of the test substances remained constant. As a result of the stepwise increase in the dosage of the cytostatic agent, resistance developed in the U937 cells. The development of resistance is prevented or inhibited in the case of a positively tested HSP27 inhibitor. The experiments from Example 6 were repeated in the same way, wherein U937 cells (histiocytic lymphoma) are cultured in DMEM culture medium (+10% FCS) at 37° C., 5% CO2 in an H2O— saturated atmosphere. 100,000 cells/ml were seeded and incubated with an initial concentration of 0.2 ng/ml of the cytostatic agent bortezomib and both without an inhibitor and with acepromazine as an HSP27 inhibitor at a concentration of 1 μM/L. The reference substance, BVDU, was employed at a concentration of 30 μM/L. The cells were passaged in each case before the cell count reached 1,000,000 cells/ml. At each passage, 100,000 cells/ml were again seeded and the dose of the cytostatic agent bortezomib was increased stepwise by 0.1 ng/mL. The concentration of the test substance and the reference substance remained constant. As a result of the stepwise increase in the dosage of the cytostatic agent, resistance developed in the U937 cells. The development of resistance is prevented or inhibited in the case of a positively tested HSP27 inhibitor. The cell line U-937 is a histiocytic lymphoma (DSMZ ACC 5). This cell line also responds to treatment with bortezomib, expresses HSP27 and develops resistance to bortezomib. Bortezomib is not the standard therapy for this lymphoma, but is being discussed as a possible therapeutic agent. U-937 cells were seeded with a cell count of 100,000 cells/ml in each case and regularly passaged. […] At the end of the experiment, 70,000 living cells per ml medium could be detected. For the treatment with 30 μmol/L BVDU, a final cell count of 250,000 cells/ml was detected whereas the final cell count in the culture without the addition of an HSP27 inhibitor amounted to 450,000 cells/ml. As a control, U-937 cells were treated with the respective test substances alone, FIG. 10b.

[3] = bio-layer interferometry, read-out: KD
[4] = analytes 1.23-300 μM/l, PBST 0.1% Tween 20 plus 3% DMSO, read-out: Dissociation constant KD
[5] = bortezomib 0.075-0.275 ng/ml, plus 1 μmol/L inhibitor

T1 sequence (P04792 whole entry): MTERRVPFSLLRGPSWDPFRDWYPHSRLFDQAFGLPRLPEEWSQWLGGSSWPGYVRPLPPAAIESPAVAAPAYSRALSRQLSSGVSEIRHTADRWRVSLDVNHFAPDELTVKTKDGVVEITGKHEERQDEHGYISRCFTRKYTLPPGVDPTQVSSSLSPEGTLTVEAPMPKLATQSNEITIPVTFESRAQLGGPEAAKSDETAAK

CN(C)CCCN1c2ccccc2Sc2ccc(Cl)cc21 [Chlorpromazine, reference compound]
Kd (HSP27 [1]; [3]): 770 µM | development of resistance to bortezomib (RPMI-8226 cells; bortezomib 0.2-0.4 ng/ml, plus 0.5 μmol/L inhibitor): significantly inhibited

O=c1nc(Nc2cccc(CO)c2)[nH]c2nc[nH]c12 [2-(3-Hydroxymethylphenylamino)-3,7-dihydropurin-6-one]
Kd (HSP27 [1]; [4]): 710 µM

Cc1cn(CC=CCNC(=O)C2c3ccccc3Oc3ccccc32)c(=O)[nH]c1=O [9H-xanthene-9-carboxylic acid [4-(5-methyl-2,4-dioxo-3,4-dihydro-2H-pyrimidin-1-yl)-but-2-enyl]amide]
Kd (HSP27 [1]; [4]): 267 µM | Rel. quantity of protein prec. CS (HSP27 [2]; 43° C. for 120 minutes): 0.65 | times higher activity than BVDU for the inhibition of the HSP27 protein (HSP27 [2]): 49 times | development of resistance to bortezomib (RPMI-8226 cells; [5]): significantly inhibited

O=c1[nH]c(=O)n([C@H]2C[C@H](O)[C@@H](CO)O2)cc1-c1ccccc1 [5-Phenyl-2′-deoxyuridine]
Kd (HSP27 [1]; [4]): 60 µM

Cc1cn(CC=CCNC(=O)Cc2ccc(-c3ccccc3)cc2)c(=O)[nH]c1=O [2-biphenyl-4-yl-N-[4-(5-methyl-2,4-dioxo-3,4-dihydro-2H-pyrimidin-1-yl)-but-2-enyl]-acetamide]
Kd (HSP27 [1]; [4]): 424 µM | Rel. quantity of protein prec. CS (HSP27 [2]; 43° C. for 120 minutes): 0.81 | times higher activity than BVDU for the inhibition of the HSP27 protein (HSP27 [2]): 61 times | development of resistance to bortezomib (RPMI-8226 cells; [5]): significantly inhibited

O=C(Cc1ccc(-c2ccccc2)cc1)NC/C=C\Cn1ccc(=O)[nH]c1=O [N-[(2Z)-4-(2,4-Dioxo-3H-pyrimidin-1-yl)but-2-en-1-yl]-2-(4-phenylphenyl)acetamide]
Rel. quantity of protein prec. CS (HSP27 [2]; 43° C. for 70 minutes): 0.88

Cc1cn(CCCCNC(=O)Cc2ccc(-c3ccccc3)cc2)c(=O)[nH]c1=O [N-[4-(5-Methyl-2,4-dioxo-3H-pyrimidin-1-yl)butyl]-2-(4-phenylphenyl)acetamide]
Rel. quantity of protein prec. CS (HSP27 [2]; 43° C. for 70 minutes): 0.67

Cc1cn(C/C=C\CNC(=O)C(c2ccccc2)c2ccccc2)c(=O)[nH]c1=O [N-[(2Z)-4-(5-Methyl-2,4-dioxo-3H-pyrimidin-1-yl)but-2-en-1-yl]-2,2-diphenylacetamide]
Rel. quantity of protein prec. CS (HSP27 [2]; 43° C. for 70 minutes): 0.82

Cc1cn([C@H]2C[C@H](n3cc(C(C)(C)C)nn3)[C@@H](CO)O2)c(=O)[nH]c1=O [3′-Deoxy-3′-[4-(2-methyl-2-propanyl)-1H-1,2,3-triazol-1-yl]thymidine]
Rel. quantity of protein prec. CS (HSP27 [2]; 43° C. for 70 minutes): 0.61

Cc1cn(CCCCNC(=O)C2c3ccccc3Oc3ccccc32)c(=O)[nH]c1=O [N-[4-(5-Methyl-2,4-dioxo-3H-pyrimidin-1-yl)butyl]-9H-xanthene-9-carboxamide]
Rel. quantity of protein prec. CS (HSP27 [2]; 43° C. for 70 minutes): 0.68

Cc1cn(C/C=C\CNC(=O)Cc2cccc3ccccc23)c(=O)[nH]c1=O [N-[(2Z)-4-(5-Methyl-2,4-dioxo-3H-pyrimidin-1-yl)but-2-en-1-yl]-2-(naphthalen-1-yl)acetamide]
Rel. quantity of protein prec. CS (HSP27 [2]; 43° C. for 70 minutes): 0.81

CCCCc1ccc(Nc2nc3c(ncn3COCCO)c(=O)[nH]2)cc1 [2-(4-butylphenylamino)-9-(2-hydroxyethoxymethyl)-1,9-dihydropurin-6-one]
Kd (HSP27 [1]; [3]): 15 µM | development of resistance to bortezomib (U937 cells): significantly inhibited | Efficacy compared with BVDU (HSP27 [2]; 10 μmol/L vs 750 μmol/L BVDU, 43° C. for 120 minutes): 69.0 x | Rel. quantity of protein prec. CS (HSP27 [2]; 43° C. for 120 minutes): 0.92 | times higher activity than BVDU for the inhibition of the HSP27 protein (HSP27 [2]): 69 times | development of resistance to bortezomib (RPMI-8226 cells; bortezomib 0.1-0.3 ng/ml, plus 1 μM inhibitor): significantly inhibited

Cc1cn(C/C=C\CNC(=O)c2cccc3ccccc23)c(=O)[nH]c1=O [N-[(2Z)-4-(5-Methyl-2,4-dioxo-3H-pyrimidin-1-yl)but-2-en-1-yl]naphthalene-1-carboxamide]
Rel. quantity of protein prec. CS (HSP27 [2]; 43° C. for 70 minutes): 0.78

Cc1cn([C@H]2C[C@H](n3cc(CC4CCCC4)nn3)[C@@H](CO)O2)c(=O)[nH]c1=O [3′-[4-(Cyclopentylmethyl)-1H-1,2,3-triazol-1-yl]-3′-deoxythymidine]
Rel. quantity of protein prec. CS (HSP27 [2]; 43° C. for 70 minutes): 0.66

Cc1cn([C@H]2C[C@H](n3cc(-c4ccc(Cl)c(Cl)c4)nn3)[C@@H](CO)O2)c(=O)[nH]c1=O [3′-Deoxy-3′-[4-(3,4-dichlorophenyl)-1H-1,2,3-triazol-1-yl]-thymidine]
Rel. quantity of protein prec. CS (HSP27 [2]; 43° C. for 70 minutes): 0.86

O=C(NC/C=C\Cn1ccc(=O)[nH]c1=O)C1c2ccccc2OC2C=CC=CC21 (stereo not shown) [N-[(2Z)-4-(2,4-Dioxo-3H-pyrimidin-1-yl)but-2-en-1-yl]-9,9a-dihydro-4aH-xanthene-9-carboxamide]
Rel. quantity of protein prec. CS (HSP27 [2]; 43° C. for 70 minutes): 0.85
